# Results reported in paper PMC10747913, “Preparation of ^18F-Labeled Tracers Targeting Fibroblast Activation Protein via Sulfur [^18F]Fluoride Exchange Reaction” (Pharmaceutics, 2023).
# pIC50: −log10 of the molar value. “Also recorded” adds a separate entry of the source.
# Tests used:
# human recombinant FAP = biological target: T1, human recombinant FAP (Homo sapiens, UniProt Q12884); assay: Fluorogenic FAP enzyme inhibition assay (BPS Bioscience #80210, Ala-Pro-AMC substrate); assay type: biochemical; settings: for Hill Coefficient: mean with 95% confidence interval in brackets
# T1 construct: purchased BPS Bioscience 80210
# T1 sequence (Q12884 1-760): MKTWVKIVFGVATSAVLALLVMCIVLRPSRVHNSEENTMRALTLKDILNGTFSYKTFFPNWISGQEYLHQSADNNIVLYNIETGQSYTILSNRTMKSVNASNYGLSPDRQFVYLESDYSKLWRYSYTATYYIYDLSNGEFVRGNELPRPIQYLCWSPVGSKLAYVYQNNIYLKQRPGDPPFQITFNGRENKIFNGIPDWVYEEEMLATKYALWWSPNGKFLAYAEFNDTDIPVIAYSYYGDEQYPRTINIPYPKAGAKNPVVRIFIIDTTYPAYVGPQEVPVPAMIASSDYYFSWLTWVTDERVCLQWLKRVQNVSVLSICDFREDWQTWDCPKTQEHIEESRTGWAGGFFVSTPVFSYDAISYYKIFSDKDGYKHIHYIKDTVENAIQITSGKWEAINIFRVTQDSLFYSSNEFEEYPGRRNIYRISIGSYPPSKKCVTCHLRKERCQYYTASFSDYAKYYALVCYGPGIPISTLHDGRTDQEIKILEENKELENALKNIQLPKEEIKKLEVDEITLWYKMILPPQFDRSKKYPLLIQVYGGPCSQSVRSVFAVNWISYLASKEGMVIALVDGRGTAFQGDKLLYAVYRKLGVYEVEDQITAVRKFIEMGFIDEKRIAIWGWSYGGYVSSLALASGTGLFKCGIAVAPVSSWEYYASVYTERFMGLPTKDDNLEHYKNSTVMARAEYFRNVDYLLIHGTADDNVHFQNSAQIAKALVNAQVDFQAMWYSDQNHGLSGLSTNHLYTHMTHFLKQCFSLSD
# Experimental: To determine the inhibitory capacity, a commercial fluorogenic FAP assay was used (BPS Bioscience, San Diego, CA, USA, #80210) according to the manufacturer’s instructions. […] On the day of testing, a 1:10 dilution in the supplied DPP assay buffer was performed for all compounds. […] The fluorogenic peptide substrate (Ala-Pro-AMC dipeptide) was added and the reaction started with the addition of the human recombinant FAP (25 ng/µL). Immediately, the plate was loaded into a multilabel plate reader (Biotek Cytation 5, Agilent, Bellevue, WA, USA) and each well was measured at an excitation wavelength window of 360 ± 20 nm and an emission wavelength window of 450 ± 20 nm. The fluorescence intensity was measured over 15 min in intervals of 15 s, resulting in 61 data points per curve. Controls included blanks (omission of substrate, enzyme and inhibitor), negative (omission of enzyme) and positive controls (omission of inhibitor). The recorded time courses of the type (RFU − RFU0) = f(t) were analyzed with linear regression of the experimental data over the entire measurement period. […] (2) rate=Bottom+(Top−Bottom)×[I]^nH/[I]^nH+IC50^nH
# Spanning a range of compound concentrations (50 pM–1 µM), fluorescence intensity changes were followed over 15 min.
# [1] = Experimental: Microsome experiments with [^18F]12 in the presence of NADPH were performed according to the procedure recently described by us with slight modifications. […] The radiotracer dissolved in EtOH (4 µL; 5 MBq/µL) was diluted with PBS (496 µL, 0.8% EtOH). This radiotracer solution (100 µL, 0.32% EtOH and 16 MBq/mL or 1.6 µM final) was mixed with PBS (112.5 µL) and human liver microsomes (12.5 µL of 20 mg/mL stock; 1 mg/mL final; Gibco™ Cat. No. HMMCPL, Lot. No. PL050E-B) in a 1.5 mL Eppendorf tube and the mixture was warmed for 5 min at 37 °C. Subsequently, NADPH (25 µL of freshly prepared 20 mM solution in PBS, 2 mM final) was added and the mixture was incubated at 37 °C. As a control incubation, NADPH was omitted and replaced by PBS. After distinct time points (10, 20, 30 and 60 min), an aliquot (40 µL) was withdrawn and added to ice-cooled CH3CN (160 µL). The mixture was vortexed for 30 s, stored on ice for 4 min and centrifuged (5 min at 15,000 rpm). The resulting supernatant was used for radio-HPLC analysis using the Shimadzu system described in Section 2.2 with the following conditions. A C18 column Kinetex® from Phenomenex (5 µm, 100 Å, LC Column 250 × 4.6 mm) served as stationary phase. The eluent consisted of (A) 0.1% trifluoroacetic acid in H2O and (B) MeCN; flow rate 1 mL/min; elution profile A/B: t0 min 70/30–t10.0 min 70/30–t11.0 min 5/95–t16.0 min 5/95–t17.0 min 70/30–t22.0 min 70/30.
# Testosterone (40 µM final) was used as a positive control for the activity of the HLM and was separately incubated under the conditions described above (0% EtOH final).
# [2] = Stability in PBS (pH 7.4); assay type: physicochemical; settings: PBS pH 7.4, 120 min
# Experimental: (§1) The radiochemical purity and identity of [^18F]12 and [^18F]13 was analyzed with radio-HPLC. […] Prior to a biological evaluation, preliminary stability studies of [^18F]12 and [^18F]13 were performed in human serum at 37 °C (Figure 3A,B). The stability studies were performed by taking an aliquot of the radiolabeled product solution and incubating the product mixture in the desired solvent or human serum at 37 °C for the given time points. In both cases, decomposition of [^18F]12 and [^18F]13 was evident from the first peak in the radioactive channel (tR: 0.6–1.0), most likely due to the release of [^18F]fluoride, which could be detected using UHPLC analysis from the first time point of 15 min and continued until 120 min. After 60 min, approximately 20% of [^18F]12 and 19% of [^18F]13 had been degraded; following a 120 min incubation, approximately 38% of both [^18F]12 and [^18F]13 had been degraded.
# Stability in EtOH = assay type: physicochemical; settings: 120 min
# Experimental: In addition, we performed a series of stability studies of compounds [^18F]12 and [^18F]13 in EtOH, phosphate-buffered saline (PBS, pH 7.4) and human serum (37 °C) to provide an indication of the rates of in vivo defluorination. […] These findings correlate with the unwanted accumulation of activity in the bones and joints obtained during PET imaging experiments in a healthy mice (Figure 5A,B).
# [3] = LogD7.4 determination by n-octanol/PBS partitioning; assay type: physicochemical; settings: n-octanol/phosphate-buffered saline; partitioning between PBS pH 7.4 and octanol
# Experimental: The LogD7.4 determination of [^18F]12 was determined in a similar manner as previously described and proceeded as follows. [^18F]12 (1 μL, ca. 0.5 MBq) was pipetted into an Eppendorf tube containing 600 μL of n-octanol (presaturated with phosphate-buffered saline) and 600 μL of phosphate-buffered saline buffer (0.02 M, pH = 7.4). The tube was vortexed for 15 min at room temperature, and the two phases were separated by centrifugation at 5000 rpm for 3 min. An aliquot (400 µL) from the n-octanol layer was pipetted in a vial containing phosphate-buffered saline (400 µL), the sample mixture was vortexed for 15 min at room temperature and the two phases were separated by centrifugation at 5000 rpm for 3 min. Aliquots (250 µL) from each phase were taken and measured with an automatic γ-counter after subtracting the background activity. The transfer of the aqueous phase requires particular care, as described by Linclau et al.. The partition coefficient was calculated for the acquired samples using Equation (1). (1) logD7.4=log counts per minute (octanol)/counts per minute (phosphate buffer)
# [4] = Liver cytosol assay (RLC); assay type: in vitro ADME, rat; settings: for stability toward RLC: 2 mg/mL RLC, up to 60 min, 37 °C
# Experimental: (§2) Liver cytosol experiments with [^18F]12 were performed according to reported procedures.
# (§3) Vanilin (40 µM final) was used as positive control for the activity of the liver cytosols and was separately incubated under the conditions described above (1% EtOH final). […] More than 80% of the vanilin had been degraded after 60 min in the presence of HLC, while around 60% of the vanilin had been degraded with RLC. There was no change in the degradation rate with and without 1% EtOH in the incubation mixture.
# [5] = Liver cytosol assay (HLC); assay type: in vitro ADME, human; settings: for stability toward HLC: 2 mg/mL HLC, up to 60 min, 37 °C
# Experimental: as §2, §3
# [6] = Serum stability assay at 37 °C (radio-UHPLC); assay type: in vitro ADME, human; settings: for stability in human serum: after only 15 min
# Experimental: Either [^18F]12 or [^18F]13 (20–40 MBq) in 40 µL EtOH aliquots was incubated with 360 µL human serum (Sigma Aldrich, Darmstadt, Germany) at 37 °C. After specific time intervals (5–120 min), 40 µL samples were taken from the serum incubation mixture, added to 80 µL “Supersol” solubilizing agent (see Supplementary Materials Table S6) and cooled over ice for 2 min. Thereafter, the cooled mixture was centrifuged at 4 °C (15,000 rpm) for 3 min and 80 µL of the supernatant solution was monitored with radio-UHPLC. A gradient of 5% to 45% acetonitrile in 7.5 min was used for enhanced separation.
# as §1
# [7] = Small-animal PET distribution in healthy mice; assay type: in vivo, BALB/cJRj mice
# Experimental: All animal experiments were carried out according to the guidelines of the German Regulation for Animal Welfare. The protocol was approved by the local Ethical Committee for Animal Experiments. Small-animal PET was performed using the nanoScan® PET/CT (Mediso Medical Imaging Systems, Budapest, Hungary). Each animal (BALB/cJRj mice, n = 2) received an intravenous injection of 10 MBq [^18F]12 delivered in 0.15 mL of 0.154 mol/L NaClaq through a tail vein catheter. Emission of annihilation photons was recorded continuously for 2 h. A corresponding X-ray CT image was recorded and used for anatomical referencing and attenuation correction. List-mode data were sorted into sinograms with 36 frames (15 × 10 s, 5 × 30 s, 5 × 60 s, 4 × 300 s, 3 × 600 s, 4 × 900 s) and reconstructed using the Tera-Tomo™ 3D algorithm, applying corrections for decay, scatter and attenuation. […] Three-dimensional regions of interest (ROI) were created, applying fixed contrast thresholds for delineation of blood (heart content, 80%), liver (80%), kidneys (50%), bone (knee and shoulder joints, 50%), gall bladder and intestine (5%) and urinary bladder (10%). Organ-specific activity concentrations were determined as ROI-averaged standardized uptake values at mid-frame time (SUVmean). Time–activity curves were drawn using Prism 9.0 (GraphPad Software, La Jolla, CA, USA) and the activity retention within each organ was reported as the area under the curve (AUC). Excreted activity fractions were determined as the percent of the initially administered activity dose (%ID).
# [8] = positive control, 40 µM, after 60 min
compound,measurement,setting,value
"N#C[C@@H]1CC(F)(F)CN1C(=O)CNC(=O)c1ccnc2ccc(OCCCN3CCN(C(=O)CN4CCN(CC(=O)O)CCN(CC(=O)O)CCN(CC(=O)O)CC4)CC3)cc12 [FAPI-04, reference compound]",Hill Coefficient,human recombinant FAP,−1.51 (−2.51 to −0.95)
"C[C@]12CC[C@H]3[C@@H](CCC4=CC(=O)CC[C@@]43C)[C@@H]1CC[C@@H]2O [Testosterone, reference compound]",time after which metabolization was completed,[1]; human,> 30 min
N#C[C@@H]1CC(F)(F)CN1C(=O)CNC(=O)c1ccnc2ccc(OCCCN3CCN(C(=O)c4ccc(OS(=O)(=O)[18F])cc4)CC3)cc12 [[^18F]12],stability in PBS,[2],stable
same,stability in EtOH,Stability in EtOH,stable
same,logD,[3],1.81
same,stability toward RLC,[4],largely stable; also recorded: mostly stable
same,stability toward RLC,[4]; listed as [18F]12,No degradation
same,stability toward HLC,[5],largely stable; also recorded: mostly stable
same,stability toward HLC,[5]; listed as [18F]12,No degradation
same,substrate of aldehyde oxidase (AO),[5]; liver cytosols as source of AO,not to be a substrate of AO
same,fraction degraded in human serum,[6]; 120 min incubation,approximately 38%
same,fraction degraded in human serum,[6]; after 60 min,approximately 20%
same,stability in human serum,[6],clear signs of instability
same,time of maximum activity concentration in kidney,"[7]; i.v., after injection",2 min
same,time of maximum activity concentration in liver,"[7]; i.v., after injection",2 min
same,activity concentration in bones,"[7]; i.v., within 2 h",continuously increasing
same,fraction of initially delivered activity dose excreted via hepatobiliary pathway,"[7]; retention in gall bladder and intestine, 2 h",45%
same,fraction of initially delivered activity dose excreted via renal pathway,"[7]; retention in urinary bladder, 2 h",10%
same,half-time toward HLM,"[1]; 1 mg/mL HLM, 2 mM NADPH, 1.6 µM tracer, 37 °C, one-phase decay",4.4 min
same,stability in presence of HLM without NADPH (control),"[1]; NADPH omitted, 60 min",apparently stable
N#C[C@@H]1CC(F)(F)CN1C(=O)CNC(=O)c1ccnc2ccc(OCCCN3CCN(C(=O)c4cccc(OS(=O)(=O)[18F])c4)CC3)cc12 [[^18F]13],stability in PBS,[2],stable
same,stability in EtOH,Stability in EtOH,stable
same,fraction degraded in human serum,[6]; 120 min incubation,approximately 38%
same,fraction degraded in human serum,[6]; after 60 min,~19%
same,stability in human serum,[6],clear signs of instability
N#C[C@@H]1CC(F)(F)CN1C(=O)CNC(=O)c1ccnc2ccc(OCCCN3CCN(C(=O)c4ccc(OS(=O)(=O)F)cc4)CC3)cc12 [compound 12],pIC50,human recombinant FAP,8.02
same,Hill Coefficient,human recombinant FAP,−1.56 (−2.43 to −1.059)
N#C[C@@H]1CC(F)(F)CN1C(=O)CNC(=O)c1ccnc2ccc(OCCCN3CCN(C(=O)c4cccc(OS(=O)(=O)F)c4)CC3)cc12 [compound 13],pIC50,human recombinant FAP,8.38
same,Hill Coefficient,human recombinant FAP,−1.27 (−1.98 to −0.91)
"COc1cc(C=O)ccc1O [vanilin, Vanilin, reference compound]",fraction degraded with RLC,[4]; [8],around 60%
same,fraction degraded in presence of HLC,[5]; [8],More than 80%
